Measured values: patent publication US11986512B2, “Compositions and methods for cancer therapy” (Thetis Pharmaceuticals LLC, priority 2021, dated 2024)

Key:
[1] = system: MC-38 cells; experiment: MC38 model of colorectal cancer, subcutaneous tumors; type: in vivo, C57BL/6J male mice; conditions: 300 ug/kg, SC, single agent, P<0.05 vs placebo
Procedure: A representative compound of Formula IV, RvE1 magnesium dilysinate, was tested for efficacy in several mouse models of cancer, including the Panc2-H7 model of pancreatic cancer, the Lewis lung carcinoma (LLC) model, the MC38 model of colorectal cancer, and the B16F10 model of melanoma. These models are well established, highly tumorigenic syngeneic models in which murine cancer cell lines are injected subcutaneously (SC) into the dorsum of C57BL/6J mice. If left untreated, these tumors grow rapidly and lead to death or euthanasia, per protocol. As detailed below in Examples 1-9 and the accompanying figures, bis RvE1 Mg-di-lysinate (Compound 1) was unexpectedly effective as an anti-cancer agent in each of these model systems when administered in a less than daily (LTD) dosing regimen. […] Without being bound by any theory, the surprising efficacy of LTD dosing of resolvins in the cancer model systems described here may be the result of durable effects on the tumor microenvironment including changes in immune cell phenotype, vascularization, stromal phenotype, and antigen presentation, as well as durable effects on the T-cell compartment such as T-cell priming and increased tumor-infiltrating lymphocytes. […]

[2] = system: Panc2 cells; experiment: Panc2-H7 model with or without anti-CTLA4; type: in vivo, C57BL/6J male mice
Procedure: To further corroborate the findings with weekly dosing of bis RvE1 Mg-di-lysinate and its efficacy in combination with immune checkpoint inhibitors (ICI), another study was conducted in the Panc2-H7 model with a different ICI. A total of twenty-four (24) C57BL/6J male mice were injected subcutaneously with 1×10e6 living Panc2 cells. Once tumors reached 200 mm^3 in size based on mean tumor volume per cohort, the mice were randomized (n=8 per group) to treatment with vehicle, bis RvE1 Mg-di-lysinate (300 ug/kg, SC, Q7D) and bis RvE1 Mg-di-lysinate+anti-CTLA-4 (4 mg/kg, i.p, first dose; 2 mg/kg i.p, Q3D following the first dose).

[3] = system: B16F10 cells; experiment: B16F10 model of melanoma, with anti-PD1 and anti-CTLA4; type: in vivo, C57BL/6J male mice
Procedure: (§1) A representative compound of Formula IV, RvE1 magnesium dilysinate, was tested for efficacy in several mouse models of cancer, including the Panc2-H7 model of pancreatic cancer, the Lewis lung carcinoma (LLC) model, the MC38 model of colorectal cancer, and the B16F10 model of melanoma. These models are well established, highly tumorigenic syngeneic models in which murine cancer cell lines are injected subcutaneously (SC) into the dorsum of C57BL/6J mice. If left untreated, these tumors grow rapidly and lead to death or euthanasia, per protocol. As detailed below in Examples 1-9 and the accompanying figures, bis RvE1 Mg-di-lysinate (Compound 1) was unexpectedly effective as an anti-cancer agent in each of these model systems when administered in a less than daily (LTD) dosing regimen. […] Without being bound by any theory, the surprising efficacy of LTD dosing of resolvins in the cancer model systems described here may be the result of durable effects on the tumor microenvironment including changes in immune cell phenotype, vascularization, stromal phenotype, and antigen presentation, as well as durable effects on the T-cell compartment such as T-cell priming and increased tumor-infiltrating lymphocytes.
Based on the finding of increased efficacy with bis RvE1 Mg-di-lysinate administered in combination with anti-PD1 monotherapy and anti-CTLA4 monotherapy, a study was conducted to investigate the efficacy of less than daily (LTD) bis RvE1 Mg-di-lysinate combined with both anti-PD1 and anti-CTLA4 in the B16F10 model of melanoma. […] See Perez-Ruiz E, et al. Nature. 2019; 569(7756):428-432. Thus, this initial study with ICI dual therapy was designed to investigate whether use of bis RvE1 Mg-di-lysinate with the ICI dual therapy could enhance efficacy, which may offer the opportunity to reduce the dose of the ICI components of the regimen without loss of efficacy. A total of sixty-four (64) C57BL/6J male mice were injected subcutaneously with 1×10e6 living B16F10 cells in the dorsum. When tumors reached a mean tumor volume of approximately 130 mme3, the mice were randomized (n=8 per group) to treatment with vehicle, bis RvE1 Mg-di-lysinate (300 ug/kg, SC, Q6D), anti-PD1 (8 mg/kg, i.p., Q3D) or anti-CTLA-4 (4 mg/kg, Q3D). The double combinations of bis RvE1 Mg-di-lysinate and anti-CTLA-4 or anti-PD1, and anti-PD1 with anti-CTLA-4, as well as the triple combination of bis RvE1 Mg-di-lysinate, anti-CTLA-4 and anti-PD1 were also investigated. All combination arms used the same dosing regimens as the individual monotherapies. The mice were sacrificed on day 12 per protocol when the mean tumor of the vehicle group reached approximately 2,000 mm^3. […] This is clinically relevant for melanoma patients receiving anti-PD1 monotherapy, which is used when the side effects of ICI dual therapy are not tolerated.

[4] = system: subcutaneous KPC tumors; experiment: RNAseq cell enrichment analysis of subcutaneous KPC tumors; type: in vivo, mice; conditions: Q6D treatment, sacrificed on Day 26, compared to placebo
Procedure: RNAseq analysis was performed on tumor samples from mice with subcutaneous KPC tumors sacrificed on Day 26 following treatment (Q6D) with bis RvE1 Mg-di-lysinate (Compound 1) compared to placebo. […] Darker color indicates increased gene expression, for various immune cells and other cells, as listed across the top of the heatmap. […] Namely, these unexpected results may be due to durable effects on the tumor microenvironment including changes in immune cell phenotype and the T-cell compartment such as T-cell priming and increased tumor-infiltrating lymphocytes.

[5] = system: Panc2-H7 cells; experiment: Panc2-H7 model, daily (QD) versus weekly (Q7D) dosing; type: in vivo, C57BL/6J male mice; conditions: SC
Procedure: as §1
Based on the previous findings in the MC38 colorectal cancer model with less than daily (LTD) dosing, a study in the Panc2-H7 model was conducted to assess the efficacy of LTD dosing of bis RvE1 Mg-di-lysinate in a different tumor model. A total of forty (40) C57BL/6J male mice were injected subcutaneously with 1×10e6 living Panc2-H7 cells. Once tumors reached 160-320 mm^3 in size, the mice were randomized (n=8 per group) to treatment with vehicle or SC injection with bis RvE1 Mg-di-lysinate at 30 ug/kg and 300 ug/kg (QD, Q7D).

[6] = triple therapy (bis RvE1 Mg-di-lysinate + anti-CTLA-4 + anti-PD1), p<0.001

In the case of `CC[C@@H](O)/C=C/C=C\C[C@@H](O)/C=C/C=C/C=C\[C@@H](O)CCCC(=O)O` [bis RvE1 Mg-di-lysinate], the “tumor volume (Day 15 vs Day 0)” value ([1]; Q3D) is reported as “effective as a single agent”, the “tumor volume (Day 15 vs Day 0)” value ([1]; QD) is reported as “effective as a single agent” and the “tumor volume over time” value ([2]; bis RvE1 Mg-di-lysinate 300 ug/kg SC Q7D + anti-CTLA-4 (4 mg/kg i.p first dose, 2 mg/kg i.p Q3D), p<0.001) is reported as “significant inhibition related to both placebo and bis RvE1 Mg-di-lysinate alone”. The “tumor volume over time” value ([2]; monotherapy, 300 ug/kg, SC, Q7D) was “significant inhibition as monotherapy compared to placebo”, the “inhibition compared to anti-PD1 monotherapy” value ([3]; double combination of bis RvE1 Mg-di-lysinate 300 ug/kg SC Q6D and anti-PD1 8 mg/kg i.p. Q3D, p<0.05) was 54% and the “efficacy of LTD dosing” value ([3]; monotherapy, 300 ug/kg, SC, Q6D) was “effective as monotherapy”. For the same molecule, the “tumor growth inhibition compared to anti-CTLA-4 monotherapy” value [3, 6] was 71%, the “tumor growth inhibition compared to anti-PD1 monotherapy” value [3, 6] was 87% and the “inhibition, tumor volume at day 12 divided by tumor volume at day 0” value ([3]; triple therapy: bis RvE1 Mg-di-lysinate 300 ug/kg SC Q6D + anti-CTLA-4 4 mg/kg Q3D + anti-PD1 8 mg/kg i.p. Q3D, p<0.05) was 67%. The “immune cell marker gene expression in tumors (RNAseq heatmap)” value [4] was “increase in markers of monocytes and DC cell subset (cDCs, pDCs, and iDCs) and markers of NK, CD8+ T cells, Th1 cells, and memory T cells (CD8+ and CD4+)”, the “tumor volume (Day 20 vs Day 0)” value ([5]; 30 ug/kg, Q7D) was “inhibition relative to placebo control” and the “tumor volume (Day 20 vs Day 0)” value ([5]; 30 ug/kg, QD) was “inhibition relative to placebo control”. For the same molecule, the “tumor volume (Day 20 vs Day 0)” value ([5]; 300 ug/kg, Q7D, P<0.05 vs placebo control) was “greatest inhibition” and the “tumor volume (Day 20 vs Day 0)” value ([5]; 300 ug/kg, QD) was “inhibition relative to placebo control”.
